Source: patent US8632824B2, “Process of obtaining thylakoids from photosynthetic organisms; plant fractions obtained from the process; pure thylakoids; and methods of use of thylakoids as ROS scavengers, photo-protectors, biosensors, biofilters and bioreactors” (Purgenesis Technologies, Inc., priority 2000, dated 2014)

How the values were obtained:
IMR-32 cells [1] = assay: Protection of IMR-32 cells against TBHP oxidative stress (Hoechst DNA survival assay); assay type: cell-based, Human; settings: for apoptosis produced by TBHP: 1000 cells per well, 1 hour
Excerpt: Human neuroblastoma cell line (IMR-32), which is known to respond to oxidative stress by apoptosis (Kim et al, 1999), was used as an in vitro cell model. IMR32 cells are particularly sensitive to ROS and other toxicants because their p53 gene product is sequestered in the cytoplasm.
Tert-butyl hydroperoxide (TBHP) was used as an oxidative stress-inducing agent. […] This will allow comparisons if studies relative to more generalized oxidative stress conditions (like the ones found in many neurodegenerative diseases) have to be performed on different cells phenotypes.
Experiments were done using 1000 IMR-32 cells per well, for I hour of incubation. TBHP 50, 75 and 100 μM produced 78%, 87% and 87% apoptosis. TBHP 50 μM was selected to induce apoptosis in the other experiments.
Different dilutions were used on IMR-32 cells along with TBHP. A mother solution 1:10 was constituted, starting from the lyophilized thylakoid fraction, in propylene glycol. Unless otherwise specified, the mentioned dilutions are dilutions of this mother solution. […] The latter dilution was adopted for further experimentation.
IMR-32 Cells were grown in MEM supplemented with 10% FBS at 37° C. in a humidified atmosphere of 95% air and 5% CO2. The cells were seeded at a density of 1×10^4 cells/T25 Falcon tissue culture flasks and subcultured twice weekly. 48 h old cultures were used in all the experiments.
1000 or 3000 cells/well/100 uL were seeded in 96 well (Linbro flat bottom) plates in all the wells except well No. 12 of all the rows. After 24 h the cells were washed 2 times with 250 ul of PBS (pH 7.2) and 32 wells each were treated respectively with 100 and 200 uM solutions of TBHP (70% aqueous solution from Sigma Chemical Company) for 1 h. After 1 h the cells were gently washed 2 times with PBS before adding fresh growth medium. After 24 h the cell survival was assayed by a sensitive fluorimetric assay based on DNA binding fluorescent dye Hoechst by the following procedure. The test measures the total DNA of the population, a measurement which closely correlates with cell number. The medium was aspirated by gentle suction. Cells were rinsed with 250 ul PBS. PBS was aspirated with gentle suction. The rinse step was repeated. 100 uL lysis buffer (0.02% SDS in 1×SSC) was added in every well except the ones for DNA standard and Blank in row 12. The plate was incubated at 37° C. for 1 h with occasional swirling. 100 uL of 40 ug/mL of DNA was added to the DNA wells and 100 uL of 1×SSC buffer was added to the wells that were treated as Blank. 100 uL of 40 ug/ml of Hoechst 33258 in 1×SSC buffer was added to every well, and the plate was covered with Aluminum foil to protect it from light. The plate was agitated gently for 5 minutes and fluorescence was read at excitation wavelength 355 nm and emission wavelength 460 nm.
CT untreated=100%: survival after TBHP: 42%, dead cells: 100−42=58%; population size after PC: 88% difference from CT: 100−88=12% Expected population size after TBHP+PC: 100−58−12=30%. Recovered survival: 60% Survival gain in %: 60−30=30 Protection exerted: 30:60×100=50%
FRTS/1 was used as pre-treatment, co-treatment and post-treatment with the oxidative insult.
The <<Cell damages TBHP/CT>> represents the damages caused by the oxidant calculated as a percentage from the survival of untreated controls. […] The <<Expected survival>> is 100-total expected decrease. […] The <<protection exerted by PC>> is calculated as reported above.

IMR-32 cells [2] = assay: Estimation of apoptosis in IMR-32 cells by LDH assay; settings: lysed cells = 100%
Procedure: For this experiment IMR-32 cells were grown in MEM medium without I-Glutamine, Phenolphtaleine and sodium pyruvate 3000 IMR-32 cell/well seeded in 96 well plates. […] After 1 hour the cells were washed with PBS two times and PBS was replaced with the growth medium. […] Two rows were left untreated as Control. The LDH activity was measured by Lactate Dehydrogenase Assay Kit provided by Sigma Diagnostics. The calorimetric assay measures the residual pyruvate (substrate of the enzymatic reaction). The basal activity present in the medium alone (in the absence of Cells) was considered 0% and was systematically subtracted from each experimental value. Control untreated cells in two rows were lysed with Triton X-100 (0.02%) and were treated as samples with 100% LDH release.
The assay used in the present study measures the residual level of enzyme substrate (pyruvate) using a calorimetric reaction. The more the substrate in the medium, the less enzyme released. Medium cells was taken as 0% enzyme activity released, and lysed cells in the medium as 100% released.

[3] = Oxidation of PLPC micelles by peroxyl radicals from AAPH (absorbance at 234 nm); assay type: biochemical; settings: FIG. 10
Excerpt: The peroxidation of unsaturated lipid moieties (reactions 1-3) causes changes in their structure which eventually changes the physical properties of biological membranes. During the lipid peroxidation a conjugated diene group is formed (see LOOH in reaction 3) which has an UV/Vis absorption maximum at λmax=234 nm (ε=29,500 M^−1cm^−1) and this allows a quantification of the oxidation product formed. To obtain quantitative data the lipid peroxidation has to be initiated in a controlled manner (reaction 1). Often azo initiators, which produce a well-defined flux of ROO. in aqueous, aerated solution, are employed to study lipid oxidation in in vitro experiments. […]
Depending on possible reaction pathways of the antioxidant used the concentration time profiles of the detected LOOH display certain characteristics. By using an azo initiator as peroxyl radical source the amount of ROO. generated can be calculated and it is possible to determine the amount of lipids oxidized from the 234 nm absorption of the conjugated diene moiety. Also the amount of ROO. trapped during the lag phase can be determined.
From the duration of a possible lag phase during lipid peroxidation experiments (FIG. 9) the amount of “trapped” radicals can be calculated. […]
The reactions were monitored on a spectrophotometer at 37° C. for 10 h. […]

| SMILES | apoptosis produced by TBHP (IMR-32 cells [1]; TBHP 50 μM) [%] | apoptosis produced by TBHP (IMR-32 cells [1]; TBHP 75 μM) [%] | apoptosis produced by TBHP (IMR-32 cells [1]; TBHP 100 μM) [%] | Cell damages TBHP/CT (IMR-32 cells [1]; co-treatment experiment, TBHP 25 uM alone) [%] | Cell damages TBHP/CT (IMR-32 cells [1]; co-treatment experiment, TBHP 50 uM alone) [%] | Cell damages TBHP/CT (IMR-32 cells [1]; post-treatment experiment, TBHP 25 uM alone) [%] | Cell damages TBHP/CT (IMR-32 cells [1]; post-treatment experiment, TBHP 50 uM alone) [%] | Cell damages TBHP/CT (IMR-32 cells [1]; pre-treatment experiment, TBHP 25 uM alone) [%] | Cell damages TBHP/CT (IMR-32 cells [1]; pre-treatment experiment, TBHP 50 uM alone) [%] | survival after TBHP (IMR-32 cells [1]; worked calculation example, CT untreated=100%) [%] | LDH release/TBHP (IMR-32 cells [2]; TBHP 25 uM alone) [%] | LDH release/TBHP (IMR-32 cells [2]; TBHP 50 uM alone) [%] | oxidation kinetics of lipids compared to Trolox [3] |
| --- | --- | --- | --- | --- | --- | --- | --- | --- | --- | --- | --- | --- | --- |
| CC(C)(C)OO [TBHP, Tert-butyl hydroperoxide] | 78 | 87 | 87 | 39 | 67 | 38 | 66 | 58 | 70 | 42 | 64 | 92 |  |
| CC1=C(/C=C/C(C)=C/C=C/C(C)=C/C=C/C=C(C)/C=C/C=C(C)/C=C/C2=C(C)CCCC2(C)C)C(C)(C)CCC1 [β-carotene] |  |  |  |  |  |  |  |  |  |  |  |  | an antioxidant but with no lag phase |
